This is an account of results in patent US7135457B1, “Random peptides that bind to gastro-intestinal tract (GIT) transport receptors and related methods” (Cytogen Corporation, priority 1997, dated 2006).

Peptide text beside a SMILES is read from it. * marks the point of attachment. Dansyl = CN(C)c1cccc2c(S(=O)(=O)*)cccc12

The test relates to P100 membrane fractions derived from Caco-2 cells. Kind of test: Dansylated peptide ELISA on P100: PAX2 and HAX42 peptides relative binding. Here is the method:
The peptides and proteins were analyzed by a dansylated peptide ELISA method in which 96 well plates were coated overnight at 4° C. with 100 μl/well coating protein (normally 100 μg/ml P100 membrane fraction) in 0.05M carbonate buffer pH9.6. Nonspecific binding was blocked using 200 μl/well, 2% Marvel/PBS for 2 hours at 37° C. prior to incubation with dansylated peptides. The plates were washed three times with PBS/0.05% Tween 20 and after each subsequent incubation step. […] A buffer blank control was included to ensure that background binding to plastic was not due to the antibodies used in the assay system. […] The plates were then incubated with an anti-mouse λ-HRP conjugated antibody (Southern Biotech 1060-05) at a 1:10,000 dilution in blocking solution, 100 μl/well for 1 hour at room temperature. Plates were developed using 75 μl/well Bionostics TMB substrate and incubated for approximately 10 minutes. The developing reaction was stopped using Bionostics Red Stop solution (25 μl/well), and the optical density of the plates was read at 650 nm.
On the technique in general: In an ELISA, binding on a coated surface is turned into a signal by an enzyme label.

Setting [1] is: PAX2 peptides, ratio to ZElan021 (HAX42 = 1.00), first 50 μg/ml column.
[2] abbreviates: PAX2 peptides, ratio to ZElan021 (HAX42 = 1.00), first 20 μg/ml column.
[3] abbreviates: PAX2 peptides, ratio to ZElan021 (HAX42 = 1.00), second 50 μg/ml column.
Where [4] appears, read: PAX2 peptides, ratio to ZElan021 (HAX42 = 1.00), second 20 μg/ml column.
The mark [5] stands for this setting: HAX42 peptides, ratio to ZElan021 (arbitrary 1.00).
[6] abbreviates: HAX42 peptides, ratio to ZElan021 (arbitrary 1.00), first 50 μg/ml column.
The mark [7] stands for this setting: HAX42 peptides, ratio to ZElan021 (arbitrary 1.00), second 50 μg/ml column.

With `CC(C)C[C@H](NC(=O)[C@H](CCCNC(=N)N)NC(=O)[C@H](CCCNC(=N)N)NC(=O)[C@H](CC(N)=O)NC(=O)[C@H](Cc1c[nH]cn1)NC(=O)[C@H](CO)NC(=O)[C@H](CO)NC(=O)[C@H](Cc1c[nH]cn1)NC(=O)[C@H](CCCCN)NC(=O)[C@H](C)NC(=O)[C@H](CC(N)=O)NC(=O)[C@@H](NC(=O)[C@@H](N)CCCCNS(=O)(=O)c1cccc2c(N(C)C)cccc12)[C@@H](C)O)C(=O)N[C@@H](CCCNC(=N)N)C(=O)N[C@H](C(=O)N[C@@H](CCCNC(=N)N)C(=O)N[C@@H](CO)C(=O)N[C@@H](CCCNC(=N)N)C(=O)N1CCC[C@H]1C(=O)N[C@@H](CC(N)=O)C(N)=O)[C@@H](C)O` [ZElan032] (H-K(Dansyl)TNAKHSSHNRRLRTRSRPN-NH2), the “Binding value at 50 μg/ml” value under setting [1] came out at 0.95.
`CC(C)C[C@H](NC(=O)[C@H](CCCNC(=N)N)NC(=O)[C@H](CCCNC(=N)N)NC(=O)[C@H](CC(N)=O)NC(=O)[C@H](Cc1c[nH]cn1)NC(=O)[C@H](CO)NC(=O)[C@H](CO)NC(=O)[C@H](Cc1c[nH]cn1)NC(=O)[C@H](CCCCN)NC(=O)[C@H](C)NC(=O)[C@H](CC(N)=O)NC(=O)[C@@H](NC(=O)[C@@H](N)CCCCNS(=O)(=O)c1cccc2c(N(C)C)cccc12)[C@@H](C)O)C(=O)N[C@@H](CCCNC(=N)N)C(=O)N[C@H](C(=O)N[C@@H](CCCNC(=N)N)C(N)=O)[C@@H](C)O` [ZElan033] (H-K(Dansyl)TNAKHSSHNRRLRTR-NH2): the “Binding value at 20 μg/ml” value under setting [2] came to 0.35. Besides, the “Binding value at 50 μg/ml” value runs as follows: under setting [1], 0.80; under setting [3], 0.66.
Consider `CC(C)C[C@H](NC(=O)[C@H](CCCNC(=N)N)NC(=O)[C@H](CCCNC(=N)N)NC(=O)[C@H](CC(N)=O)NC(=O)[C@H](Cc1c[nH]cn1)NC(=O)[C@H](CO)NC(=O)[C@H](CO)NC(=O)[C@@H](N)CCCCNS(=O)(=O)c1cccc2c(N(C)C)cccc12)C(=O)N[C@@H](CCCNC(=N)N)C(=O)N[C@H](C(=O)N[C@@H](CCCNC(=N)N)C(N)=O)[C@@H](C)O` [ZElan035] (H-K(Dansyl)SSHNRRLRTR-NH2), for which the “Binding value at 20 μg/ml” value is, setting by setting: under setting [2], 0.12; under setting [4], 0.43. Also, the “Binding value at 50 μg/ml” value by setting is: under setting [1], 0.81; under setting [3], 0.77.
As for `C[C@H](NC(=O)[C@H](CC(N)=O)NC(=O)[C@@H](NC(=O)[C@@H](N)CCCCNS(=O)(=O)c1cccc2c(N(C)C)cccc12)[C@@H](C)O)C(=O)N[C@@H](CCCCN)C(=O)N[C@@H](Cc1c[nH]cn1)C(=O)N[C@@H](CO)C(=O)N[C@@H](CO)C(=O)N[C@@H](Cc1c[nH]cn1)C(=O)N[C@@H](CC(N)=O)C(N)=O` [ZElan055] (H-K(Dansyl)TNAKHSSHN-NH2), the “Binding value at 20 μg/ml” value is 0.99 under setting [2] and 0.73 under setting [4]. The “Binding value at 50 μg/ml” value was 1.10 under setting [1] and 0.59 under setting [3].
With `CC(C)C[C@H](NC(=O)[C@H](CCCNC(=N)N)NC(=O)[C@H](CCCNC(=N)N)NC(=O)[C@@H](N)CCCCNS(=O)(=O)c1cccc2c(N(C)C)cccc12)C(=O)N[C@@H](CCCNC(=N)N)C(=O)N[C@H](C(=O)N[C@@H](CCCNC(=N)N)C(=O)N[C@@H](CO)C(=O)N[C@@H](CCCNC(=N)N)C(=O)N1CCC[C@H]1C(=O)N[C@@H](CC(N)=O)C(N)=O)[C@@H](C)O` [ZElan056] (H-K(Dansyl)RRLRTRSRPN-NH2), the “Binding value at 20 μg/ml” value under setting [2] came out at 0.00 and the “Binding value at 20 μg/ml” value under setting [4] was found to be 0.16. Moreover, the “Binding value at 50 μg/ml” value under setting [1] is listed as 0.21 and the “Binding value at 50 μg/ml” value under setting [3] is given as 0.21.
`CC(C)C[C@H](NC(=O)[C@H](CCCNC(=N)N)NC(=O)[C@H](CCCNC(=N)N)NC(=O)[C@@H](N)CCCCNS(=O)(=O)c1cccc2c(N(C)C)cccc12)C(=O)N[C@@H](CCCNC(=N)N)C(=O)N[C@H](C(=O)N[C@@H](CCCNC(=N)N)C(=O)N[C@@H](CO)C(=O)N[C@@H](CCCNC(=N)N)C(N)=O)[C@@H](C)O` [ZElan057] (H-K(Dansyl)RRLRTRSR-NH2): the “Binding value at 20 μg/ml” value under setting [2] worked out at 0.08. The “Binding value at 50 μg/ml” value runs as follows: under setting [1], 0.56; under setting [3], 0.25.
For `CC(C)C[C@H](NC(=O)[C@H](CCCNC(=N)N)NC(=O)[C@H](CCCNC(=N)N)NC(=O)[C@@H](N)CCCCNS(=O)(=O)c1cccc2c(N(C)C)cccc12)C(=O)N[C@@H](CCCNC(=N)N)C(=O)N[C@H](C(=O)N[C@@H](CCCNC(=N)N)C(N)=O)[C@@H](C)O` [ZElan058, H2N-K(dns)RRLRTR-CONH2] (H-K(Dansyl)RRLRTR-NH2), in that order: 0.05, 0.47 and 0.16.
As for `CC(C)C[C@H](NC(=O)[C@H](C)NC(=O)[C@H](Cc1c[nH]cn1)NC(=O)[C@H](CC(=O)O)NC(=O)[C@H](CO)NC(=O)[C@@H](N)CCCCNS(=O)(=O)c1cccc2c(N(C)C)cccc12)C(=O)NCC(=O)N[C@H](C(=O)N[C@@H](CC(N)=O)C(=O)N[C@@H](CC(C)C)C(=O)N[C@@H](CCCNC(=N)N)C(=O)N[C@@H](CO)C(=O)N[C@@H](CC(=O)O)C(=O)N[C@@H](CC(N)=O)C(=O)N[C@@H](C)C(=O)N[C@@H](CCCCN)C(=O)N[C@@H](CCC(=O)O)C(=O)N1CCC[C@H]1C(=O)NCC(=O)N[C@@H](CC(=O)O)C(=O)N[C@@H](Cc1ccc(O)cc1)C(=O)N[C@@H](CC(N)=O)C(=O)N[C@@H](CS)C(=O)N[C@@H](CS)C(=O)NCC(=O)N[C@@H](CC(N)=O)C(=O)NCC(N)=O)[C@@H](C)O` [ZElan060] (H-K(Dansyl)SDHALGTNLRSDNAKEPGDYNCCGNG-NH2), the “Binding value at 20 μg/ml” value under setting [5] amounted to 0.44. For the same molecule, the “Binding value at 50 μg/ml” value under setting [6] was determined as 0.56 and the “Binding value at 50 μg/ml” value under setting [7] is reported as 0.43.
The like results for `CC[C@H](C)[C@H](NC(=O)[C@H](C)NC(=O)[C@H](CO)NC(=O)[C@@H]1CCCN1C(=O)[C@H](CCCNC(=N)N)NC(=O)[C@H](CCCNC(=N)N)NC(=O)[C@H](CCCNC(=N)N)NC(=O)[C@H](CC(N)=O)NC(=O)[C@H](Cc1ccccc1)NC(=O)[C@@H](NC(=O)[C@H](CCCCN)NC(=O)[C@H](CCCNC(=N)N)NC(=O)CNC(=O)[C@@H](NC(=O)[C@H](CO)NC(=O)[C@H](CC(N)=O)NC(=O)CNC(=O)[C@H](CC(N)=O)NC(=O)CNC(=O)[C@H](CS)NC(=O)[C@H](CS)NC(=O)[C@H](CC(N)=O)NC(=O)[C@H](Cc1ccc(O)cc1)NC(=O)[C@H](CC(=O)O)NC(=O)CNC(=O)[C@@H](N)CCCCNS(=O)(=O)c1cccc2c(N(C)C)cccc12)[C@@H](C)O)C(C)C)C(=O)N1CCC[C@H]1C(=O)N[C@H](C(N)=O)[C@@H](C)O` [ZElan061] (H-K(Dansyl)GDYNCCGNGNSTGRKVFNRRRPSAIPT-NH2) were, in that order, 0.20, 0.60 and 0.38.
The like results for `CC(C)C[C@H](NC(=O)[C@H](C)NC(=O)[C@H](Cc1c[nH]cn1)NC(=O)[C@H](CC(=O)O)NC(=O)[C@H](CO)NC(=O)[C@@H](N)CCCCNS(=O)(=O)c1cccc2c(N(C)C)cccc12)C(=O)NCC(=O)N[C@H](C(=O)N[C@@H](CC(N)=O)C(=O)N[C@@H](CC(C)C)C(=O)N[C@@H](CCCNC(=N)N)C(=O)N[C@@H](CO)C(=O)N[C@@H](CC(=O)O)C(=O)N[C@@H](CC(N)=O)C(=O)N[C@@H](C)C(=O)N[C@@H](CCCCN)C(=O)N[C@@H](CCC(=O)O)C(=O)N1CCC[C@H]1C(=O)NCC(N)=O)[C@@H](C)O` [ZElan062] (H-K(Dansyl)SDHALGTNLRSDNAKEPG-NH2) were, in that order, 0.11, 0.42 and 0.34.
Take `CC(C)[C@H](NC(=O)[C@H](CCCCN)NC(=O)[C@H](CCCNC(=N)N)NC(=O)[C@@H](N)CCCCNS(=O)(=O)c1cccc2c(N(C)C)cccc12)C(=O)N[C@@H](Cc1ccccc1)C(=O)N[C@@H](CC(N)=O)C(=O)N[C@@H](CCCNC(=N)N)C(=O)N[C@@H](CCCNC(=N)N)C(=O)N[C@@H](CCCNC(=N)N)C(=O)N1CCC[C@H]1C(=O)N[C@@H](CO)C(N)=O` [ZElan065] (H-K(Dansyl)RKVFNRRRPS-NH2): under setting [5], the “Binding value at 20 μg/ml” value is listed as 0.00. For the same molecule, the “Binding value at 50 μg/ml” value amounted to 0.54 under setting [6] and 0.30 under setting [7].
For the molecule `CN(C)c1cccc2c(S(=O)(=O)NCCCC[C@H](N)C(=O)N[C@@H](CC(N)=O)C(=O)N[C@@H](CCCNC(=N)N)C(=O)N[C@@H](CCCNC(=N)N)C(=O)N[C@@H](CCCNC(=N)N)C(=O)N3CCC[C@H]3C(=O)N[C@@H](CO)C(N)=O)cccc12` [ZElan067, H2N-K(dns)NRRRPS-CONH2] (H-K(Dansyl)NRRRPS-NH2), under setting [5], the “Binding value at 20 μg/ml” value is on record as 0.08. The “Binding value at 50 μg/ml” value under setting [6] is given as 0.52 and the “Binding value at 50 μg/ml” value under setting [7] is listed as 0.40.
